These results are taken from ChEMBL document CHEMBL1132692, “Paclitaxel derivatives for targeted therapy of cancer: toward the development of smart taxanes” (J Med Chem, 1999).

Assay [1] concerns NCI-H1299. Put plainly: Inhibitory concentration against NCI-H1299 Human Nonsmall cell lung cancer cells after 24 hr exposure to the compound. It is filed as functional, cell-based. The conditions noted are these: NCI-H1299, 24 h.
Assay [2] deals with NCI-H1299. As to the kind of experiment: Inhibitory concentration against NCI-H1299 Human Nonsmall cell lung cancer cells after 96h exposure to the compound. The note with it: NCI-H1299, 96 h. It is filed as functional, cell-based.
In assay [3] the target is T1, Bombesin receptor subtype-3 (Homo sapiens) (UniProt P32247).
T1 sequence (whole entry): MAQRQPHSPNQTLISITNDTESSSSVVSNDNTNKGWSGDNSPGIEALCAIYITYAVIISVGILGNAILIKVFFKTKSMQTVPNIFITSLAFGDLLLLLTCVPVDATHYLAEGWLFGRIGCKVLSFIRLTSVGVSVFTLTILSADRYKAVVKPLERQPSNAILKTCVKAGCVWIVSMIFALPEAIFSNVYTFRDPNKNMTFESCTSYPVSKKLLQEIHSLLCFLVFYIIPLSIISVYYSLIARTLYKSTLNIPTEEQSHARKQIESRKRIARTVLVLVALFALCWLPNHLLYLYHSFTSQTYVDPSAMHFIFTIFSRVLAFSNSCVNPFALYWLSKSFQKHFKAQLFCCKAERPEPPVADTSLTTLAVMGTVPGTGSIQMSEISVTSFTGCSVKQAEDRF
Put plainly: Inhibition of [125I]Tyr3-BBN binding to NCI-H1299 cell line. The assay is classed as cell-based. The conditions noted are these: concentration not given here.

For assay [4], the target named is Gastrin-releasing peptide receptor (Mus musculus) (UniProt P21729). As to the kind of experiment: Inhibition of [125I]Tyr3-BBN binding to BNR-11 cell line (Bombesin/gastrin-releasing peptide receptor). The assay is classed as cell-based. The note with it: concentration not given here.
Chain of Gastrin-releasing peptide receptor (Mus musculus) (P21729 whole entry): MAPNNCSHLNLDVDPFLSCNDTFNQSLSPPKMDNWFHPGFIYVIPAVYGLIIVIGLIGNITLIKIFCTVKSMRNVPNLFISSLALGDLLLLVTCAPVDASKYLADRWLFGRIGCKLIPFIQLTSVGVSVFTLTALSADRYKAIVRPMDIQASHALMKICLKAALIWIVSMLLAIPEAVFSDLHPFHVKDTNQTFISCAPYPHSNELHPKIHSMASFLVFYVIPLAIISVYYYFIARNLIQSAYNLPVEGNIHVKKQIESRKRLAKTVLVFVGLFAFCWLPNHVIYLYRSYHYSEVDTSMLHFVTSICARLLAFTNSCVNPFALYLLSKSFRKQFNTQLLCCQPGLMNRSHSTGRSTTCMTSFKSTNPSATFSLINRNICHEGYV

`CC(=O)O[C@H]1C(=O)[C@@]2(C)[C@H]([C@H](OC(=O)c3ccccc3)[C@]3(O)C[C@H](OC(=O)[C@H](O)[C@@H](NC(=O)c4ccccc4)c4ccccc4)C(C)=C1C3(C)C)[C@]1(OC(C)=O)CO[C@@H]1C[C@@H]2O` [PACLITAXEL]: the half-inhibitory concentration (IC50) in assay [1] came out at 35 nM; in assay [2], 15 nM.
For `CC(C)C[C@H](NC(=O)[C@H](Cc1c[nH]cn1)NC(=O)CNC(=O)[C@@H](NC(=O)[C@H](C)NC(=O)[C@H](Cc1c[nH]c2ccccc12)NC(=O)[C@@H](N)CCC(N)=O)C(C)C)C(N)=O`, the inhibition is 3.6% in assay [3] and 14% in assay [4].

As a reminder, the IC50 is the point on the concentration scale where inhibition reaches its midpoint. The low end stands for greater potency in that assay, the high end for weaker potency in that assay. For orientation: inhibition means the share of the control response that was lost under treatment. The low end stands for a weak effect, the high end for a strong effect.
